Assay results taken from paper PMC6979384, “Characterization of the plant homeodomain (PHD) reader family for their histone tail interactions” (Epigenetics & Chromatin, 2020).

Legend:
Assay in all cases: Histone peptide microarray
Type in all cases: binding, human
Conditions in all cases: sheet "Array Heatmap"
[1] = test system: PHF8
How it was run: (§1)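 Binding of recombinant GST-fused PHD readers (0.5 μM) is detected on an array of 293 histone peptides, modified singly or in combination. An optimized array protocol is followed, and each intensity is the average of quadruplicate measurements with standard deviation.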

[2] = test system: AIRE (PP)
How it was run: as §1

[3] = test system: MLL5
How it was run: as §1

[4] = test system: CHD4 (PPCC)
How it was run: as §1

[5] = test system: CHD5 (PPCC)
How it was run: as §1

[6] = test system: PHRF1 (RP)
How it was run: as §1

[7] = test system: DIDO1
How it was run: as §1

[8] = test system: CHD5 (PCC)
How it was run: as §1

[9] = test system: KDM4C (TTP)
How it was run: as §1

[10] = test system: BAZ2B
How it was run: as §1

[11] = test system: ING4
How it was run: as §1

[12] = test system: KDM5B (3)
How it was run: as §1

[13] = test system: TRIM66 (PB)
How it was run: as §1

[14] = test system: KDM5A (3)
How it was run: as §1

[15] = test system: KDM7A
How it was run: as §1

[16] = test system: MORC3 (CW)
How it was run: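 Purified PHD finger domains fused to GST are screened against 293 synthetic histone peptides bearing one or several post-translational modifications. The protein is used at 0.5 μM, and the signal from four replicate arrays is averaged, with standard deviation given.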

[17] = test system: ING3
How it was run: as §1

[18] = test system: DPF2 (PPC2W2)
How it was run: as §1

[19] = test system: PHF23
How it was run: as §1

[20] = test system: PHF13
How it was run: as §1

[21] = test system: KDM5A (1)
How it was run: as §1

[22] = test system: PHF2
How it was run: as §1

[23] = test system: TAF3
How it was run: as §1

[24] = test system: ING1
How it was run: as §1

[25] = test system: PHF21A
How it was run: as §1

[26] = test system: BPTF (PB)
How it was run: as §1

[27] = test system: ING5
How it was run: as §1

[28] = test system: SP140L
How it was run: as §1

[29] = test system: ING2
How it was run: as §1

[30] = test system: RAG2
How it was run: as §1

[31] = test system: KDM5B (1)
How it was run: as §1

[32] = GST-tagged reader, histone peptide array, total n = 4

Substance: H3.3K27me3 + S28p: H3.3 15-34
- Array Heatmap signal, PHF8 ([1]; GST-tagged PHF8, arrays performed twice, total replicate number n = 4): 0.2831
- Array Heatmap signal, AIRE (PP) ([2]; GST-tagged AIRE (PP), arrays performed twice, total replicate number n = 4): 0.3112
- Array Heatmap signal, MLL5 ([3]; GST-tagged MLL5, arrays performed twice, total replicate number n = 4): 0.4825
- Array Heatmap signal, CHD4 (PPCC) ([4]; GST-tagged CHD4 (PPCC), arrays performed twice, total replicate number n = 4): 0.5244
- Array Heatmap signal, CHD5 (PPCC) ([5]; GST-tagged CHD5 (PPCC), arrays performed twice, total replicate number n = 4): 0.4194
- Array Heatmap signal, PHRF1 (RP) ([6]; GST-tagged PHRF1 (RP), arrays performed twice, total replicate number n = 4): 0.3794
- Array Heatmap signal, DIDO1 ([7]; GST-tagged DIDO1, arrays performed twice, total replicate number n = 4): 0.6255
- Array Heatmap signal, CHD5 (PCC) ([8]; GST-tagged CHD5 (PCC), arrays performed twice, total replicate number n = 4): 0.7455
- Array Heatmap signal, KDM4C (TTP) ([9]; GST-tagged KDM4C (TTP), arrays performed twice, total replicate number n = 4): 0.35
- Array Heatmap signal, BAZ2B ([10]; GST-tagged BAZ2B, arrays performed twice, total replicate number n = 4): 0.3578
- Array Heatmap signal, ING4 ([11]; GST-tagged ING4, arrays performed twice, total replicate number n = 4): 0.3661
- Array Heatmap signal, KDM5B (3) ([12]; GST-tagged KDM5B (3), arrays performed twice, total replicate number n = 4): 0.357
- Array Heatmap signal, TRIM66 (PB) ([13]; GST-tagged TRIM66 (PB), arrays performed twice, total replicate number n = 4): 0.52
- Array Heatmap signal, KDM5A (3) ([14]; GST-tagged KDM5A (3), arrays performed twice, total replicate number n = 4): 0.3655
- Array Heatmap signal, KDM7A ([15]; GST-tagged KDM7A, arrays performed twice, total replicate number n = 4): 0.2454
- Array Heatmap signal, MORC3 (CW) ([16]; GST-tagged MORC3 (CW), arrays performed twice, total replicate number n = 4): 0.3155
- Array Heatmap signal, ING3 ([17]; GST-tagged ING3, arrays performed twice, total replicate number n = 4): 0.4009
- Array Heatmap signal, DPF2 (PPC2W2) ([18]; GST-tagged DPF2 (PPC2W2), arrays performed twice, total replicate number n = 4): 0.5839
- Array Heatmap signal, PHF23 ([19]; GST-tagged PHF23, arrays performed twice, total replicate number n = 4): 0.4498
- Array Heatmap signal, PHF13 ([20]; GST-tagged PHF13, arrays performed twice, total replicate number n = 4): 0.4998
- Array Heatmap signal, KDM5A (1) ([21]; GST-tagged KDM5A (1), arrays performed twice, total replicate number n = 4): 0.3549
- Array Heatmap signal, PHF2 ([22]; GST-tagged PHF2, arrays performed twice, total replicate number n = 4): 0.4942
- Array Heatmap signal, TAF3 ([23]; GST-tagged TAF3, arrays performed twice, total replicate number n = 4): 0.2035
- Array Heatmap signal, ING1 ([24]; GST-tagged ING1, arrays performed twice, total replicate number n = 4): 0.4657
- Array Heatmap signal, PHF21A ([25]; GST-tagged PHF21A, arrays performed twice, total replicate number n = 4): 0.4021
- Array Heatmap signal, BPTF (PB) ([26]; GST-tagged BPTF (PB), arrays performed twice, total replicate number n = 4): 0.288
- Array Heatmap signal, ING5 ([27]; GST-tagged ING5, arrays performed twice, total replicate number n = 4): 0.2601
- Array Heatmap signal, SP140L ([28]; GST-tagged SP140L, arrays performed twice, total replicate number n = 4): 0.3164
- Array Heatmap signal, ING2 ([29]; GST-tagged ING2, arrays performed twice, total replicate number n = 4): 0.582
- Array Heatmap signal, RAG2 ([30]; GST-tagged RAG2, arrays performed twice, total replicate number n = 4): 0.2001
- Array Heatmap signal, KDM5B (1) ([31]; GST-tagged KDM5B (1), arrays performed twice, total replicate number n = 4): 0.5567

Substance: H3 (1-25): H3 1-25
- Array Heatmap signal, PHF8 [1, 32]: 0.366
- Array Heatmap signal, AIRE (PP) [2, 32]: 0.5222
- Array Heatmap signal, MLL5 [3, 32]: 0.57
- Array Heatmap signal, CHD4 (PPCC) [4, 32]: 0.5563
- Array Heatmap signal, CHD5 (PPCC) [5, 32]: 0.5322
- Array Heatmap signal, PHRF1 (RP) [6, 32]: 0.8507
- Array Heatmap signal, DIDO1 [7, 32]: 0.658
- Array Heatmap signal, CHD5 (PCC) [8, 32]: 0.8391
- Array Heatmap signal, KDM4C (TTP) [9, 32]: 0.4415
- Array Heatmap signal, BAZ2B [10, 32]: 0.4554
- Array Heatmap signal, ING4 [11, 32]: 0.4369
- Array Heatmap signal, KDM5B (3) [12, 32]: 0.5183
- Array Heatmap signal, TRIM66 (PB) [13, 32]: 0.9221
- Array Heatmap signal, KDM5A (3) [14, 32]: 0.6477
- Array Heatmap signal, KDM7A [15, 32]: 0.3768
- Array Heatmap signal, MORC3 (CW) [16, 32]: 0.6357
- Array Heatmap signal, ING3 [17, 32]: 0.4651
- Array Heatmap signal, DPF2 (PPC2W2) [18, 32]: 0.7357
- Array Heatmap signal, PHF23 [19, 32]: 0.5406
- Array Heatmap signal, PHF13 [20, 32]: 0.6012
- Array Heatmap signal, KDM5A (1) [21, 32]: 0.4713
- Array Heatmap signal, PHF2 [22, 32]: 0.5334
- Array Heatmap signal, TAF3 [23, 32]: 0.2692
- Array Heatmap signal, ING1 [24, 32]: 0.5226
- Array Heatmap signal, PHF21A [25, 32]: 0.4429
- Array Heatmap signal, BPTF (PB) [26, 32]: 0.3452
- Array Heatmap signal, ING5 [27, 32]: 0.3412
- Array Heatmap signal, SP140L [28, 32]: 0.342
- Array Heatmap signal, ING2 [29, 32]: 0.6234
- Array Heatmap signal, RAG2 [30, 32]: 0.2539
- Array Heatmap signal, KDM5B (1) [31, 32]: 0.6949
